Results taken from ChEMBL document CHEMBL5233283, “Indole derivatives as tubulin polymerization inhibitors for the development of promising anticancer agents” (Bioorg Med Chem, 2021).
pIC50: −log10 of the molar value.

Tests used:
HCT-116 = test: Cytotoxicity against human HCT-116 cells assessed as inhibition of cell growth; type: functional, cell-based
MCF7 = test: Cytotoxicity against human MCF7 cells assessed as inhibition of cell growth; type: functional, cell-based
HepG2 = test: Cytotoxicity against human HepG2 cells assessed as inhibition of cell growth; type: functional, cell-based
MDA-MB-231 = test: Cytotoxicity against human MDA-MB-231 cells assessed as inhibition of cell growth; type: functional, cell-based
PA-1 = test: Cytotoxicity against human PA-1 cells assessed as inhibition of cell growth; type: functional, cell-based
HeLa = test: Cytotoxicity against human HeLa cells assessed as inhibition of cell growth; type: functional, cell-based
HT-29 = test: Cytotoxicity against human HT-29 cells assessed as inhibition of cell growth; type: functional, cell-based
A549 = test: cells; conditions: Homo sapiens
Description: Cytotoxicity against human A549 cells assessed as inhibition of cell growth

MKN-45 = test: Cytotoxicity against human MKN-45 cells assessed as cell growth inhibition; type: functional, cell-based
NCI-H460 = test: Cytotoxicity against human NCI-H460 cells assessed as cell growth inhibition; type: functional, cell-based
RKO = test: Cytotoxicity against human RKO cells assessed as inhibition of cell growth; type: functional, cell-based
NCI/ADR-RES = test: Cytotoxicity against human NCI-ADR-RES cells assessed as inhibition of cell growth; type: functional, cell-based
PC-3 = test: Cytotoxicity against human PC-3 cells assessed as inhibition of cell growth; type: functional, cell-based
AGS = test: Cytotoxicity against human AGS cells assessed as inhibition of cell growth; type: functional, cell-based
[1] = Cytotoxicity against human CL1-5 cells assessed as inhibition of cell growth; type: functional, cell-based
[2] = Cytotoxicity against human […] cells assessed as inhibition of cell growth; type: functional, cell-based
B16-F10 = test: Cytotoxicity against mouse B16-F10 cells assessed as cell growth inhibition; type: functional, cell-based
[3] = Cytotoxicity against human Neural progenitor cells assessed as cell growth inhibition; type: functional, cell-based
SH-SY5Y = test: Cytotoxicity against human SH-SY5Y cells assessed as cell growth inhibition; type: functional, cell-based
KB = test: Cytotoxicity against human KB cells assessed as cell growth inhibition; type: functional, cell-based
Ishikawa = test: Cytotoxicity against human Ishikawa cells assessed as inhibition of cell growth; type: functional, cell-based
[4] = Cytotoxicity against human SCC-29B cells assessed as inhibition of cell growth; type: functional

With `COc1ccc(C(=O)/C=C/c2ccc3c(ccn3C)c2)c2ccccc12` as the compound, how does the pIC50 (HCT-116) read?
The pIC50 was 5.95.

What about the pIC50 (MCF7) of the same compound?
Its pIC50 is 6.09.

And the pIC50 (HepG2)?
Its pIC50 is 6.19.

What does the source list for `O=C(N/N=C/c1c[nH]c2ccccc12)c1c[nH]c2ccccc12`?
pIC50 (MDA-MB-231): 5.10; pIC50 (PA-1): 4.61; pIC50 (MCF7): 5.28; pIC50 (HeLa): 5.82; pIC50 (HepG2): 4.53

Which GI50 (MDA-MB-231) does the source give for `O=C1Nc2cc(Cl)ccc2/C1=C\c1c(-c2ccc(F)cc2)nc2ccccn12` here?
Its GI50 is 950 nM.

And the GI50 (MCF7)?
Its GI50 is 430 nM.

With `COC(=O)c1[nH]c2ccc(OC)cc2c1Nc1cc(OC)c(OC)c(OC)c1` as the compound, how does the pIC50 (HT-29) read?
Its pIC50 is 6.96.

What about the pIC50 (MCF7) of the same compound?
The pIC50 was 6.96.

What about the pIC50 (HeLa) of the same compound?
The pIC50 was 6.96.

With `COC(=O)c1[nH]c2cc(OC)ccc2c1/C=C/C(=O)c1cc(OC)c(OC)c(OC)c1` as the compound, how does the pIC50 (HT-29) read?
Its pIC50 is 6.80.

What about the pIC50 (MCF7) of the same compound?
Its pIC50 is 6.77.

And the pIC50 (HeLa)?
Its pIC50 is 6.43.

With `COc1cc(C2=CN(C(N)=O)C(c3cn(C)c4ccc(Br)cc34)C2)cc(OC)c1OC` (stereo unspecified) as the compound, how does the pIC50 (A549) read?
The pIC50 was 6.59.

And the pIC50 (MCF7)?
The pIC50 was 6.54.

And the pIC50 (HeLa)?
The pIC50 was 6.68.

And the pIC50 (HepG2)?
Its pIC50 is 6.51.

With `N#Cc1ccc(/C=N/NC(=O)c2[nH]c3ccc(Cl)cc3c2-c2ccccc2)cc1` as the compound, how does the pIC50 (MCF7) read?
The pIC50 was 6.77.

With `O=C(N/N=C/c1ccc(C(F)(F)F)cc1)c1[nH]c2ccc(Cl)cc2c1-c1ccccc1` as the compound, how does the pIC50 (MCF7) read?
Its pIC50 is 6.38.

What does the source list for `N#Cc1c(-c2ccc(F)cc2Cl)cc(-c2c[nH]c3ccccc23)n2ccnc12`?
pIC50 (HT-29): 7.70; pIC50 (MKN-45): 6.85; pIC50 (A549): 6.24; pIC50 (NCI-H460): 7.30

With `COc1cc(C(=O)c2cccc3[nH]ccc23)cc([Se]C)c1OC` as the compound, how does the pIC50 (HCT-116) read?
The pIC50 was 8.40.

What about the pIC50 (MDA-MB-231) of the same compound?
The pIC50 was 8.40.

And the pIC50 (A549)?
The pIC50 was 8.40.

And the pIC50 (HeLa)?
Its pIC50 is 8.40.

What about the pIC50 (HepG2) of the same compound?
The pIC50 was 8.40.

What about the pIC50 (RKO) of the same compound?
Its pIC50 is 8.40.

What does the source list for `COc1ccc(S(=O)(=O)Nc2cccc3cc(-c4ccccc4)[nH]c23)cc1`?
pIC50 (NCI/ADR-RES): 6.82; pIC50 (HT-29): 6.89; pIC50 (PC-3): 6.96; pIC50 (A549): 5.84; pIC50 (AGS): 6.60; pIC50 (HeLa): 6.70; pIC50 [1]: 6.35

With `COC(=O)c1c(Nc2cc(OC)c(OC)c(OC)c2)c2ccc(OC)cc2n1C` as the compound, how does the pIC50 (HT-29) read?
Its pIC50 is 6.96.

What about the pIC50 (MCF7) of the same compound?
The pIC50 was 6.96.

And the pIC50 (HeLa)?
Its pIC50 is 6.96.

With `O=C(O)c1cccc(-n2cc(CSc3c[nH]c4ccccc34)nn2)c1` as the compound, how does the pIC50 (MCF7) read?
Its pIC50 is 5.45.

Which results are given for `COc1cc(/C=N/NC(=O)c2cn(Cc3ccccc3)c3ccccc23)cc(OC)c1OC`?
pIC50 (A549): 7.10; pIC50 (MCF7): 6.19; pIC50 (HepG2): 6.20; pIC50 [2]: 4.45

With `COc1cc(/C=C/c2ncc([N+](=O)[O-])n2CCOC(=O)c2c[nH]c3ccccc23)cc(OC)c1OC` as the compound, how does the pIC50 (A549) read?
The pIC50 was 7.46.

What about the pIC50 (MCF7) of the same compound?
The pIC50 was 7.52.

What about the pIC50 (HepG2) of the same compound?
The pIC50 was 7.40.

Which results are given for `O=C(CC(c1ccccc1)c1c(-c2ccccc2)[nH]c2ccccc12)c1ccc(F)cc1` (stereo unspecified)?
pIC50 (B16-F10): 5.00; pIC50 (MCF7): 5.00

Which results are given for `CC(=O)c1ccc(C2=C(c3c(C)[nH]c4ccccc34)C(=O)N(C)C2=O)cc1`?
pIC50 [3]: 5.88; pIC50 (A549): 5.30; pIC50 (SH-SY5Y): 5.07

Which results are given for `COc1ccc(-n2ccc3cc(OC)c(OC)c(OC)c32)cc1O`?
pIC50 (HT-29): 7.99; pIC50 (MKN-45): 7.95; pIC50 (NCI-H460): 7.89; pIC50 (KB): 7.86

What does the source list for `COc1cc(CSc2nnc(-c3cn(C)c4ccccc34)n2-c2ccccc2)cc(OC)c1OC`?
pIC50 (A549): 6.52; pIC50 (MCF7): 6.42; pIC50 (HeLa): 6.82; pIC50 (HepG2): 6.52

With `O=C(CC(c1ccc(F)cc1)c1c(-c2ccccc2)[nH]c2ccccc12)c1ccccc1` (stereo unspecified) as the compound, how does the pIC50 (B16-F10) read?
The pIC50 was 5.00.

And the pIC50 (MCF7)?
Its pIC50 is 5.00.

With `Oc1cccc(-n2cc(CSc3c[nH]c4ccccc34)nn2)c1` as the compound, how does the pIC50 (MCF7) read?
The pIC50 was 5.63.

With `O=C(CC#Cc1ccccc1)Oc1ccc2[nH]ccc2c1` as the compound, how does the pIC50 (MDA-MB-231) read?
The pIC50 was 5.00.

What about the pIC50 (MCF7) of the same compound?
Its pIC50 is 5.42.

What about the pIC50 (Ishikawa) of the same compound?
The pIC50 was 5.00.

And the pIC50 (HeLa)?
The pIC50 was 5.49.

With `COc1ccc(C(=O)/C=C/c2cn(C)c3ccc(C(=O)c4cc(OC)c(OC)c(OC)c4)cc23)cc1OC` as the compound, how does the GI50 [4] read?
The GI50 was 960 nM.
